Data as given in US12473551B2, “Small RNA-based drug, preparation and use thereof in prophylaxis and/or treatment of cardiomyopathy” (SOUTHWEST MEDICAL UNIVERSITY, priority 2023, dated 2025).
“Also recorded” adds a separate entry of the source.

Columns and labels:
[1] = test system: ASC; experiment: Western blot of pyroptosis-related protein ASC in AGEs-treated AC16 cells; assay type: cell-based, human; details: 40 nM, 24 h + AGEs 200 μg/mL, β-actin reference
Method: (§1) The DICAR-JP45 (40 nM) and DICAR-JP sequences were transfected into AC16 cell model for 24 h, respectively. The serum-free medium was replaced for starvation for 2 h, followed by treatment with AGEs (200 μg/mL) for 24 h, respectively. After the cells were treated, the expressions of pyroptosis-related proteins, GSDMD and apoptosis associated speck-like protein containing a CARD (ASC), were detected by Western blot (WB). The internal reference protein was β-actin. The WB was conducted according to the following steps.
(§2) The cells were rinsed twice with PBS, protein lysate (100 μL/well) was added, and the cells were lysed on ice for 30 min. The lysate was collected and centrifuged at 12000 rpm for 30 min at 4° C. After centrifugation, the supernatant protein was collected. The protein sample was mixed with the protein loading buffer at a 4:1 ratio and heated in a metal bath at 95° C. for 10 min, and the sample was stored at 4° C. […] Signals were detected by using enhanced chemiluminescent reagent, and the Western blot bands were quantitatively analyzed by Image J software. […]

[2] = test system: db/db mice; experiment: Cardiac function of db/db mice after AAV9-DICAR-JP / AAV9-DICAR-JP45 tail vein injection; assay type: in vivo, mouse; details: for E′/a value: db/db mice 1.14, DICAR-JP p<0.05, DICAR-JP45 no statistical significance
From the text: In the present disclosure, Shanghai Jikai Gene Medical Technology Co., Ltd. was commissioned to construct AAV9-DICAR-JP and AAV9-DICAR-JP45 viruses based on the sequences shown in SEQ ID NOS: 12 and 10, including CMV bGlobin EGFP-MCS-WPRE hGH polyA as a viral plasmid construction skeleton element sequence, a vector with the number GV412, and NheI and Hind III as cloning sites; the construction of microRNA up involves extending the precursor sequence of microRNA approximately 100 bp each upstream and downstream of the genome, ensuring the splicing efficiency of microRNA.
The mice were divided into db/m+AAV9-GFP (mock control, 5×10^11 vg), db/db+AAV9-GFP (5×10^11 vg), db/db+AAV9-DICAR-JP (5×10^11 vg), db/db+AAV9-DICAR-JP45 (5×10^11 vg), and db/db+dapagliflozin (DAPA, 1.5 mg/kg/d) groups. AAV9 viruses were injected into the tail vein of the mice at the age of 4 months. The mice in the db/db group were administered by gastric gavage with DAPA at the age of 5 months, and the mice in the db/m group were controls without gastric gavage of DAPA. The changes of cardiac function were evaluated by small animal echocardiography at the age of 5, 6 and 7 months, respectively, cardiac remodeling was evaluated by Masson staining, and myocardial hypertrophy was evaluated by wheat germ agglutinin (WGA) staining.

[3] = test system: AC16 human cardiomyocytes treated with AGEs; experiment: CCK8 cell viability screening of candidate sequences in AGEs-treated cardiomyocytes; assay type: cell-based; details: for protective effect on cardiomyocytes compared with DICAR-JP / relative cell viability / protective effect at around 48 h: 20 nM, CCK8; for protective effect on cardiomyocytes compared with DICAR-JP: 24 h transfection; for protective effect on cardiomyocytes compared with DICAR-JP / relative cell viability: AGEs 200 μg/mL for 24 h; for protective effect at around 48 h: AGEs 200 μg/mL for 48 h
Method: In this example, CCK8 assay was used to evaluate the protective activity of the candidate sequences against cardiomyocytes treated with advanced glycation end products (AGEs, purchased from Bioss®, Cat #bs-1158P), so as to select a small RNA with a better protective effect on cardiomyocytes. The method included the following steps:
Cell culture: AC16 human cardiomyocytes (purchased from Guangzhou Jennio Biotech Co., Ltd., derived from ATCC) were cultured in DMEM (High Glucose) Complete Medium (supplemented with 10% fetal bovine serum (FBS) and 1% […]) in a 5% CO2, 37° C. incubator.
Grouping: Control, AGEs (200 μg/mL, 24 h/48 h), negative control (NC, 20 nM, 24 h), DICAR-JP4 (20 nM, 24 h), DICAR-JP6 (20 nM, 24 h), DICAR-JP18 (20 nM, 24 h), DICAR-JP23 (20 nM, 24 h), DICAR-JP27 (20 nM, 24 h), DICAR-JP28 (20 nM, 24 h), DICAR-JP29 (20 nM, 24 h), DICAR-JP32 (20 nM, 24 h), DICAR-JP40 (20 nM, 24 h), DICAR-JP45 (20 nM, 24 h), and DICAR-JP (20 nM, 24 h).
Nucleic acid transfection method: Two microliters (μL) each of Lipofectamine® RNAi MAX (Thermo Fisher Scientific RNi MAX, Cat #13778-500) and DICAR-JPN were diluted with Opti-MEM® Medium (50 μL), respectively, and then the two reagents were mixed well and incubated at room temperature for 5 min. The Lipofectamine® RNAi MAX-DICAR-JPN complex was added to the AC16 cell supernatant (50 μL/well, 24 h) on a 24-well plate. Afterward, the complete medium was replaced with serum-free DMEM, and the cell cycle was synchronized for 2 h. AC16 cells were treated with 200 μg/mL AGEs for 24 and 48 h, respectively, and their viability was evaluated by CCK8 assay.
Evaluation of cell viability by CCK8 assay: The cells were washed twice with phosphate-buffered saline (PBS) in the dark, and serum-free DMEM supplemented with CCK8 (CCK8: DMEM=1:9) was added; the well plate was placed back into the cell culture incubator for further incubation for 1 h, and the absorbance was measured at 450 nm using a microplate reader. The cell viability (%) was calculated according to the following formula: Cell viability=[(A450nmExperiment−A450nmBlank)]/[(A450nmControl−A450nmBlank)]×100%, where the blank refers to the serum-free DMEM.

[4] = test system: AC16 cardiomyocytes treated with AGEs; experiment: Pharmacodynamics: CCK8 EC50 against AGEs-induced cardiomyocyte injury; assay type: cell-based, human; details: for protective effect over concentration gradient (relative survival of cardiomyocytes): 1, 10, 20, 30, 40, 50 nM + AGEs 200 μg/mL, 24 h; for EC50: 1-50 nM, 24 h + AGEs 200 μg/mL, CCK8, fitting curve, read-out: half-maximal effect concentration (EC50)
Method: The cell viability was detected by CCK8 assay after 24 h of cell treatment. The absorbance was measured at 450 nm using a microplate reader to calculate the half-maximal effect concentration (EC50), respectively. EC50 was calculated according to the following formula:
[formula] where the blank refers to the serum-free DMEM.

[5] = molecular target: NACα protein (Homo sapiens, UniProt Q13765); experiment: Localized surface plasmon resonance (SPR) binding to NACα protein; details: DEPC-treated water, 25° C.; for Kd: ratio Koff/Kon
From the text: The affinity of DICAR-JP45 and DICAR-JP for binding to NACα protein was compared using localized surface plasmon resonance (SPR) technology (Wuhan Yangene Biological Technology Co., Ltd.).
Among them, the dissociation coefficient Koff is used to characterize the constant of the dissociation velocity of DICAR-JP45 and NACα protein, the binding coefficient Kon is used to characterize the constant of the binding velocity of DICAR-JP45 and NACα protein, and the affinity constant KD is the ratio of Koff/Kon, indicating the equilibrium dissociation constant between DICAR-JP45 and NACα protein.

[6] = test system: GSDMD; experiment: Western blot of pyroptosis-related protein GSDMD in AGEs-treated AC16 cells; assay type: cell-based, human; details: 40 nM, 24 h + AGEs 200 μg/mL, β-actin reference
Method: as §1, §2

[7] = AAV9 tail vein, echocardiography

| Sequence | suppression of expression of ASC [1] | improvement in mouse cardiac function ([2]; 3 months after tail vein injection at age 4 months) | ejection fraction (EF) value ([2]; AAV9 5×10^11 vg tail vein, 3 months after injection, db/db mice 57.5%) [%] | E′/a value ([2]; AAV9 5×10^11 vg tail vein) | cardiomyocyte hypertrophy (WGA staining) ([2]; AAV9 tail vein) | FS value [2, 7] | LVVs value [2, 7] | efficacy duration [3] | protective effect on cardiomyocytes compared with DICAR-JP [3] | relative cell viability [3] | protective effect at around 48 h [3] | protective effect over concentration gradient (relative survival of cardiomyocytes) [4] | EC50 [4] [nM] | Koff [5] [s⁻¹] | Kon [5] [M⁻¹ s⁻¹] | Kd [5] [nM] | suppression of expression of GSDMD [6] |
| --- | --- | --- | --- | --- | --- | --- | --- | --- | --- | --- | --- | --- | --- | --- | --- | --- | --- |
| CAACCUCCGGGGCCACAAUAGCGAGAUUUGUAAGACUCUAGGGCCUCCCAG (chemistry not given here) [DICAR-JP45] | more significantly compared with DICAR-JP | a certain effect on improving cardiac function | 71.07 | 1.45 | no significant effect on improving myocardial hypertrophy | improve | improve | over 24 h | significant protective effect | higher cardiomyocyte viability; also recorded: close to that of the untreated group | disappeared | increase within the concentration gradient range | 17.9 | 0.000152 | 25000 | 6.09 | more significantly compared with DICAR-JP |
| CAACCUCCGGGGCCACAAUAGCGAGAUUUGUAAGAUUCCAGGGCCUCCCAG (listed as RNA, chemistry not given here) [DICAR-JP40] |  |  |  |  |  |  |  |  | significant protective effect | significantly higher than that of the model group | disappeared |  |  |  |  |  |  |
| CAACCUCCGGGGCCACAAUAGCGAGAUUUGUAAGACUCCAGGGCCUCCCAG (chemistry not given here) [DICAR-JP, reference compound] |  |  |  | 1.73 | effectively inhibit cardiomyocyte hypertrophy |  |  |  |  |  |  | increase within the concentration gradient range | 26.2 | 0.000866 | 22600 | 38.3 |  |
